Biological target: T1, CDK4/Cyclin D1 (Homo sapiens, UniProt P11802)
T1 construct: made in house; host or cells: insect cells (crude cell lysate)
Test: Cyclin D1/cdk4 phosphoRb in vitro kinase assay
Type: biochemical
Settings: for IC50: insect cell lysates expressing cyclin D1 and cdk4, GST-Rb substrate, 32P-ATP, read-out: IC50, inhibition of CDK4/Cyclin D1; for relative potency of inhibition of CDK4/cyclin D1: compared with Compound 4 and Compound 1 (esters or ethers)
Source text: The efficacy of a compound in inhibiting the activity of cyclin-dependent kinases can be determined by several methods well known in the art, such as a kinase assay, as described in the Examples section herein, or as described in Losiewics, M. D., et al. (1994) Biochem. Biophys. Res. Commun. 201, 589. Thus, a complex containing the cyclin-dependent kinase and a cyclin is first isolated either from a recombinant source, or immunoprecipitated from cells synchronized at the stage at which a particular cyclin-dependent kinase is present at high levels in the cell. The immunoprecipitates are then incubated in the presence of radiolabelled ATP and an appropriate substrate with various amounts of the inhibitor. The amount of radioactivity associated with the substrate protein can then be determined by various methods well known in the art. The substrate used for the kinase assay will depend on the specific kinase. Typically, histone H1 or CDK1 S1 is used as a substrate for the CDC2 kinase and the retinoblastoma protein is used as a substrate in a kinase assay for CDK4. The kinases, cyclins, and substrates used in the in vitro kinase assay can be proteins isolated from mammalian cells, or alternatively, they can be proteins produced recombinantly, such as in E. Coli.
This example is an illustration of the cyclin-dependent kinase inhibitory activity of the compounds of the invention. The kinase inhibitory activity of several compounds of the invention was determined using an in vitro kinase assay in which the kinase activity of the CDK4 kinase was measured using a Cyclin D1/cdk4 phosphoRb Assay. Briefly, the assay employs cell lysates from insect cells expressing cyclin D1 and cdk4 kinase. The cyclin/cdk lysate is combined in a microtitre-type plate along with a kinase compatible buffer, ^32 P-labeled ATP, a GST-Rb fusion protein, and the test agent. The kinase reaction is allowed to proceed with the radiolabeled ATP, then effectively stopped by the addition of a large excess of unlabeled ATP. The GST-Rb protein is sequestered on a GSH-Sepharose bead suspension, washed, resuspended in scintilant, and ^32 P activity detected in a scintillation counter. The concentration of compound at which 50% of the kinase activity was blocked (IC50) was calculated for each compound.

T1 sequence (P11802 whole entry, species assumed): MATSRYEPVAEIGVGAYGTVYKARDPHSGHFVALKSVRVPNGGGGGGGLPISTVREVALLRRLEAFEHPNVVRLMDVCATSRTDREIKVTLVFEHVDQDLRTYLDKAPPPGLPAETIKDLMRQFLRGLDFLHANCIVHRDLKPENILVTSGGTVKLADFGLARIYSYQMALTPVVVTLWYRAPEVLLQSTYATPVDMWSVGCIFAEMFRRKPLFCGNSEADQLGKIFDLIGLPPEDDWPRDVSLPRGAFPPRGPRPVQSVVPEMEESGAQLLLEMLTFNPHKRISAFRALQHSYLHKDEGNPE
T1 sequence (P24385 whole entry partner, species assumed): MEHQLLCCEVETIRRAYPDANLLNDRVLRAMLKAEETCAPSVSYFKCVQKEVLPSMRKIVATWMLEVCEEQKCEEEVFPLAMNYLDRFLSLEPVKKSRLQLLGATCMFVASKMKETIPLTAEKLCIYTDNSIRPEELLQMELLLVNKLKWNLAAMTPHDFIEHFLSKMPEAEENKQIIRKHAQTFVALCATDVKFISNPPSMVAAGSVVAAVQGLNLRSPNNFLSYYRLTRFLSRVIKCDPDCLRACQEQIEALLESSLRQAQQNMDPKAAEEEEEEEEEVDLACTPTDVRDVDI

| IC50 [µM] | SMILES | relative potency of inhibition of CDK4/cyclin D1 |
| --- | --- | --- |
| < 250 | COc1cc(OC)c2c(=O)cc(-c3ccccc3Cl)oc2c1[C@@H]1CN(C)CC[C@@H]1O (relative stereo) [Compound 13] |  |
| < 150 | CN1CC[C@H](O)[C@H](c2c(O)cc(O)c3c(=O)cc(-c4ccccc4Cl)oc23)C1 (relative stereo) [Compound 14] |  |
| 230 | COc1cc(OC)c2c(=O)cc(-c3ccccc3Cl)oc2c1C1CCN(C)CC1=O (centres unmarked) [Compound 4] |  |
| < 50 | CN1CCC(c2c(O)cc(O)c3c(=O)cc(-c4ccccc4Cl)oc23)C(=O)C1 (centres unmarked) [Compound 5] | much more potent inhibitors of CDK4/cyclin D1 |

| SMILES | IC50 [µM] | relative potency of inhibition of CDK4/cyclin D1 |
| --- | --- | --- |
| COc1cc(OC)c2c(=O)cc(-c3ccccc3Cl)oc2c1C1=CCN(C)CC1 [Compound 1] | < 250 |  |
| CN1CC=C(c2c(O)cc(O)c3c(=O)cc(-c4ccccc4Cl)oc23)CC1 [Compound 3] | < 50 | much more potent inhibitors of CDK4/cyclin D1 |

Source: patent US5733920A, “Inhibitors of cyclin dependent kinases” (Mitotix, Inc., priority 1995, dated 1998)
